Inhibition data for one compound are collected here from US20230304041A1, “DUAL PROMOTER-DRIVEN AND DUAL REPORTER-[…]-COV-2 REPLICONS AND METHODS OF USE” (Rosalind Franklin University of Medicine & Science, priority 2022, published 2023).

In the assay the test system is SARS2 replicon. The assay can be described thus: microbe, parasite or virus in culture. The assay is classed as cell-based, SARS-CoV-2. As to conditions: Severe acute respiratory syndrome coronavirus 2, HEK-293T, 24 hr, read-out: inhibition of fLuc.

SMILES strings stand for the structures.

Broadly, the inhibition is the drop in the measured response relative to a control, in per cent. Turning to `CCC(CC)COC(=O)[C@H](C)N[P@](=O)(OC[C@H]1O[C@@](C#N)(c2ccc3c(N)ncnn23)[C@H](O)[C@@H]1O)Oc1ccccc1` [Remdesivir], the inhibition at 10 µM amounted to 70%.
